Source: US20190256929A1, “PHARMACODYNAMIC BIOMARKERS FOR PERSONALIZED CANCER CARE USING EPIGENETIC MODIFYING AGENTS” (ORYZON GENOMICS, S.A., priority 2016, published 2019)

System: small cell lung cancer cell lines
Experiment: qRT-PCR time- and dosage-dependent expression change of candidate PD markers ASCL1, GRP, NOTCH1 in SCLC cell lines
Assay type: cell-based, human
Protocol: Seven small cell lung cancer cell lines were treated with 0.1 nM, 1 nM and 10 nM (trans)-N1-((1R,2S)-2-phenylcyclopropyl)cyclohexane-1,4-diamine or vehicle 24 hr, 96 hr and 7 days. Lysates were prepared by lysis in RNA lysis buffer containing 1% β-mercaptoethanol. RNA extraction was performed using a Maxwell 16 instrument and a Maxwell 16 LEV simply RNA cells Kit (Promega), according to the manufacturer's instructions. The mRNA expression levels of each cell line after treatment were then measured using qRT-PCR. The RT-qPCR reaction was conducted using a one-step kit (ABI), with a duplexed house-keeping control (Assay ID Hs02800695_m1) using the assays in the table below. The log 2 fold changes for each gene were calculated by comparing with the vehicle controlled samples at 24 hr sampling point.
Table 6 contains the dose-dependent effect on expression changes for candidate PD markers ASCL1 (Assay ID Hs04187546_g1), GRP (Assay ID Hs01107047_m1) and NOTCH1 (Assay ID Hs01062014_m1).

[1] = SHP-77, 0.1 nM, 24 hrs, vs vehicle at 24 hr
[2] = SHP-77, 0.1 nM, 96 hrs, vs vehicle at 24 hr
[3] = SHP-77, 0.1 nM, 168 hrs, vs vehicle at 24 hr
[4] = SHP-77, 1 nM, 24 hrs, vs vehicle at 24 hr
[5] = SHP-77, 1 nM, 96 hrs, vs vehicle at 24 hr
[6] = SHP-77, 1 nM, 168 hrs, vs vehicle at 24 hr
[7] = SHP-77, 10 nM, 24 hrs, vs vehicle at 24 hr
[8] = SHP-77, 10 nM, 96 hrs, vs vehicle at 24 hr
[9] = SHP-77, 10 nM, 168 hrs, vs vehicle at 24 hr

For N[C@H]1CC[C@H](N[C@@H]2C[C@H]2c2ccccc2)CC1 [RG6016, (trans)-N1-((1R,2S)-2-phenylcyclopropyl)cyclohexane-1,4-diamine], the “Log2_FC ASCL1” value (NCI-H510A, 1 nM, 168 hrs) was −0.51, the “Log2_FC GRP” value (NCI-H510A, 1 nM, 168 hrs) was −2.34 and the “Log2_FC NOTCH1” value (NCI-H510A, 1 nM, 168 hrs) was 3.98. For the same compound, the “Log2_FC ASCL1” value (NCI-H510A, 10 nM, 24 hrs) was −0.28, the “Log2_FC GRP” value (NCI-H510A, 10 nM, 24 hrs) was −0.35 and the “Log2_FC NOTCH1” value (NCI-H510A, 10 nM, 24 hrs) was 1.60. For the same compound, the “Log2_FC ASCL1” value (NCI-H510A, 10 nM, 96 hrs) was −0.55, the “Log2_FC GRP” value (NCI-H510A, 10 nM, 96 hrs) was −2.02 and the “Log2_FC NOTCH1” value (NCI-H510A, 10 nM, 96 hrs) was 2.89. For the same compound, the “Log2_FC ASCL1” value (NCI-H510A, 10 nM, 168 hrs) was −0.64, the “Log2_FC GRP” value (NCI-H510A, 10 nM, 168 hrs) was −2.53 and the “Log2_FC NOTCH1” value (NCI-H510A, 10 nM, 168 hrs) was 4.16. The “Log2_FC NOTCH1” value (NCI-H526, 0.1 nM, 24 hrs, vs vehicle at 24 hr) was 0.04, the “Log2_FC NOTCH1” value (NCI-H526, 0.1 nM, 96 hrs, vs vehicle at 24 hr) was 0.51 and the “Log2_FC NOTCH1” value (NCI-H526, 0.1 nM, 168 hrs, vs vehicle at 24 hr) was 0.55. The “Log2_FC NOTCH1” value (NCI-H526, 1 nM, 24 hrs, vs vehicle at 24 hr) was 0.27, the “Log2_FC NOTCH1” value (NCI-H526, 1 nM, 96 hrs, vs vehicle at 24 hr) was 0.53 and the “Log2_FC NOTCH1” value (NCI-H526, 1 nM, 168 hrs, vs vehicle at 24 hr) was 0.96. For the same compound, the “Log2_FC NOTCH1” value (NCI-H526, 10 nM, 24 hrs, vs vehicle at 24 hr) was 0.41, the “Log2_FC NOTCH1” value (NCI-H526, 10 nM, 96 hrs, vs vehicle at 24 hr) was 0.70 and the “Log2_FC NOTCH1” value (NCI-H526, 10 nM, 168 hrs, vs vehicle at 24 hr) was 0.33. The “Log2_FC ASCL1” value (NCI-H1417, 0.1 nM, 24 hrs) was −0.19, the “Log2_FC GRP” value (NCI-H1417, 0.1 nM, 24 hrs) was 0.24 and the “Log2_FC NOTCH1” value (NCI-H1417, 0.1 nM, 24 hrs) was 0.14. For the same compound, the “Log2_FC ASCL1” value (NCI-H1417, 0.1 nM, 96 hrs) was 0.12, the “Log2_FC GRP” value (NCI-H1417, 0.1 nM, 96 hrs) was −0.25 and the “Log2_FC NOTCH1” value (NCI-H1417, 0.1 nM, 96 hrs) was 0.98. The “Log2_FC ASCL1” value (NCI-H1417, 0.1 nM, 168 hrs) was 0.13, the “Log2_FC GRP” value (NCI-H1417, 0.1 nM, 168 hrs) was −0.51 and the “Log2_FC NOTCH1” value (NCI-H1417, 0.1 nM, 168 hrs) was 0.86. The “Log2_FC ASCL1” value (NCI-H1417, 1 nM, 24 hrs) was −0.20, the “Log2_FC GRP” value (NCI-H1417, 1 nM, 24 hrs) was −0.25 and the “Log2_FC NOTCH1” value (NCI-H1417, 1 nM, 24 hrs) was 1.40. For the same compound, the “Log2_FC ASCL1” value (NCI-H1417, 1 nM, 96 hrs) was −0.27, the “Log2_FC GRP” value (NCI-H1417, 1 nM, 96 hrs) was −1.06 and the “Log2_FC NOTCH1” value (NCI-H1417, 1 nM, 96 hrs) was 3.04. For the same compound, the “Log2_FC ASCL1” value (NCI-H1417, 1 nM, 168 hrs) was −0.19, the “Log2_FC GRP” value (NCI-H1417, 1 nM, 168 hrs) was −0.68 and the “Log2_FC NOTCH1” value (NCI-H1417, 1 nM, 168 hrs) was 2.55. For the same compound, the “Log2_FC ASCL1” value (NCI-H1417, 10 nM, 24 hrs) was −0.25, the “Log2_FC GRP” value (NCI-H1417, 10 nM, 24 hrs) was −0.35 and the “Log2_FC NOTCH1” value (NCI-H1417, 10 nM, 24 hrs) was 1.86. The “Log2_FC ASCL1” value (NCI-H1417, 10 nM, 96 hrs) was −0.54, the “Log2_FC GRP” value (NCI-H1417, 10 nM, 96 hrs) was −1.13 and the “Log2_FC NOTCH1” value (NCI-H1417, 10 nM, 96 hrs) was 3.14. For the same compound, the “Log2_FC ASCL1” value (NCI-H1417, 10 nM, 168 hrs) was −0.66, the “Log2_FC GRP” value (NCI-H1417, 10 nM, 168 hrs) was −1.14 and the “Log2_FC NOTCH1” value (NCI-H1417, 10 nM, 168 hrs) was 3.22. For the same compound, the “Log2_FC ASCL1” value (NCI-H1876, 0.1 nM, 24 hrs) was 0.16, the “Log2_FC GRP” value (NCI-H1876, 0.1 nM, 24 hrs) was 0.41 and the “Log2_FC NOTCH1” value (NCI-H1876, 0.1 nM, 24 hrs) was 0.82. The “Log2_FC ASCL1” value (NCI-H1876, 0.1 nM, 96 hrs) was −0.58, the “Log2_FC GRP” value (NCI-H1876, 0.1 nM, 96 hrs) was −1.58 and the “Log2_FC NOTCH1” value (NCI-H1876, 0.1 nM, 96 hrs) was −0.76. The “Log2_FC ASCL1” value (NCI-H1876, 0.1 nM, 168 hrs) was 0.35, the “Log2_FC NOTCH1” value (NCI-H1876, 0.1 nM, 168 hrs) was −0.59 and the “Log2_FC ASCL1” value (NCI-H1876, 1 nM, 24 hrs) was 0.04. The “Log2_FC GRP” value (NCI-H1876, 1 nM, 24 hrs) was 0.70, the “Log2_FC NOTCH1” value (NCI-H1876, 1 nM, 24 hrs) was 2.28 and the “Log2_FC ASCL1” value (NCI-H1876, 1 nM, 96 hrs) was −0.54. For the same compound, the “Log2_FC GRP” value (NCI-H1876, 1 nM, 96 hrs) was −1.96, the “Log2_FC NOTCH1” value (NCI-H1876, 1 nM, 96 hrs) was 1.08 and the “Log2_FC ASCL1” value (NCI-H1876, 1 nM, 168 hrs) was 0.32. The “Log2_FC GRP” value (NCI-H1876, 1 nM, 168 hrs) was −0.54, the “Log2_FC ASCL1” value (NCI-H1876, 10 nM, 24 hrs) was −0.02 and the “Log2_FC GRP” value (NCI-H1876, 10 nM, 24 hrs) was 0.38. For the same compound, the “Log2_FC NOTCH1” value (NCI-H1876, 10 nM, 24 hrs) was 2.67, the “Log2_FC ASCL1” value (NCI-H1876, 10 nM, 96 hrs) was −0.82 and the “Log2_FC NOTCH1” value (NCI-H1876, 10 nM, 96 hrs) was 2.07. The “Log2_FC ASCL1” value (NCI-H1876, 10 nM, 168 hrs) was 0.03, the “Log2_FC GRP” value (NCI-H1876, 10 nM, 168 hrs) was −1.38 and the “Log2_FC NOTCH1” value (NCI-H1876, 10 nM, 168 hrs) was 2.55. The “Log2_FC ASCL1” value (NCI-H2171, 0.1 nM, 24 hrs) was −0.14, the “Log2_FC GRP” value (NCI-H2171, 0.1 nM, 24 hrs) was 0.01 and the “Log2_FC NOTCH1” value (NCI-H2171, 0.1 nM, 24 hrs) was 0.49. The “Log2_FC ASCL1” value (NCI-H2171, 0.1 nM, 96 hrs) was −0.29, the “Log2_FC GRP” value (NCI-H2171, 0.1 nM, 96 hrs) was −1.96 and the “Log2_FC NOTCH1” value (NCI-H2171, 0.1 nM, 96 hrs) was 0.95. For the same compound, the “Log2_FC ASCL1” value (NCI-H2171, 0.1 nM, 168 hrs) was −0.16, the “Log2_FC GRP” value (NCI-H2171, 0.1 nM, 168 hrs) was −1.11 and the “Log2_FC NOTCH1” value (NCI-H2171, 0.1 nM, 168 hrs) was 0.90. The “Log2_FC ASCL1” value (NCI-H2171, 1 nM, 24 hrs) was −0.06, the “Log2_FC NOTCH1” value (NCI-H2171, 1 nM, 24 hrs) was 0.75 and the “Log2_FC ASCL1” value (NCI-H2171, 1 nM, 96 hrs) was −0.43. For the same compound, the “Log2_FC GRP” value (NCI-H2171, 1 nM, 96 hrs) was −1.17, the “Log2_FC NOTCH1” value (NCI-H2171, 1 nM, 96 hrs) was 1.17 and the “Log2_FC ASCL1” value (NCI-H2171, 1 nM, 168 hrs) was −0.02. For the same compound, the “Log2_FC GRP” value (NCI-H2171, 1 nM, 168 hrs) was −1.56, the “Log2_FC NOTCH1” value (NCI-H2171, 1 nM, 168 hrs) was 1.41 and the “Log2_FC ASCL1” value (NCI-H2171, 10 nM, 24 hrs) was −0.16. For the same compound, the “Log2_FC GRP” value (NCI-H2171, 10 nM, 24 hrs) was −0.37, the “Log2_FC NOTCH1” value (NCI-H2171, 10 nM, 24 hrs) was 0.82 and the “Log2_FC ASCL1” value (NCI-H2171, 10 nM, 96 hrs) was −0.27. For the same compound, the “Log2_FC GRP” value (NCI-H2171, 10 nM, 96 hrs) was −0.46, the “Log2_FC NOTCH1” value (NCI-H2171, 10 nM, 96 hrs) was 1.22 and the “Log2_FC ASCL1” value (NCI-H2171, 10 nM, 168 hrs) was −0.11. For the same compound, the “Log2_FC GRP” value (NCI-H2171, 10 nM, 168 hrs) was −0.87, the “Log2_FC NOTCH1” value (NCI-H2171, 10 nM, 168 hrs) was 1.63 and the “Log2_FC ASCL1” value [1] was −0.11. The “Log2_FC GRP” value [1] was 0.17, the “Log2_FC ASCL1” value [2] was 0.11 and the “Log2_FC GRP” value [2] was 0.74. For the same compound, the “Log2_FC ASCL1” value [3] was −0.36, the “Log2_FC GRP” value [3] was 0.43 and the “Log2_FC ASCL1” value [4] was 0.52. The “Log2_FC GRP” value [4] was 1.20, the “Log2_FC ASCL1” value [5] was 0.38 and the “Log2_FC GRP” value [5] was 0.83. For the same compound, the “Log2_FC ASCL1” value [6] was −0.33, the “Log2_FC GRP” value [6] was 0.16 and the “Log2_FC ASCL1” value [7] was −0.07. For the same compound, the “Log2_FC GRP” value [7] was −0.10, the “Log2_FC ASCL1” value [8] was 0.22 and the “Log2_FC GRP” value [8] was 0.56. For the same compound, the “Log2_FC ASCL1” value [9] was −0.50 and the “Log2_FC GRP” value [9] was −0.06.
